Results taken from patent US20250057756A1, “FORMULATIONS AND DOSES OF PEGYLATED URICASE” (Cartesian Therapeutics, Inc., priority 2016, published 2025).
Values joined by “and” are separate entries in the source; they are usually repeats but may differ in a detail not shown here. Identical values can stand only once. Like-named read-outs stand apart in the source and are kept apart here.

Assays:
[1] = cited from earlier work; for subjects requiring treatment for at least one gout flare: first 8 weeks, with gout flare prophylaxis
serum uric acid (SUA) = details: cited from earlier work
[2] = cited from earlier work; for patients with gout flares requiring treatment in a month: colchicine prophylaxis
uric acid [3] = details: cited from earlier work; for mean uric acid levels at four weeks: monthly dosing
ADAs = details: all KRYSTEXXA-treated subjects; cited from earlier work
[4] = cited from earlier work; for flares per patient over the first 3 months: Phase 3; for Flares per patient month: Phase 3 trials
[5] = Phase 1a clinical trial: safety; format: in vivo, human; details: single intravenous infusion, five dose levels 0.1-1.2 mg/kg
Experimental: (§1) The Phase 1a clinical trial for SEL 212 was an ascending dose trial of pegsiticase alone in 22 subjects with elevated serum uric acid levels greater than 6 mg/dl who were separated into five cohorts. Each cohort received a single intravenous infusion of pegsiticase at the following dose levels of 0.1 mg/kg for Cohort #1, 0.2 mg/kg for Cohort #2, 0.4 mg/kg for Cohort #3, 0.8 mg/kg for Cohort #4 and 1.2 mg/kg for Cohort #5. Dosing began with the lowest dose and only after an entire cohort was safely dosed was the next cohort started. The subjects were monitored during a 30 day period post infusion with visits occurring on day 7, 14,21 and the end of trial visit on day 30. Blood and serum of each patient was evaluated for serum uric acid, ADAs (specifically anti-peg, anti-uricase and anti-pegsiticase) and safety parameters.

uricase specific ADAs [6] = experiment: Phase 1a clinical trial: uricase specific ADAs; format: in vivo, human; details: single infusion; varying levels
Experimental: as §1
The serum uric acid levels were measured at baseline and days seven, 14, 21 and 30 and uricase specific ADA levels at baseline and days seven, 14 and 30 following a single intravenous injection of pegsiticase. Uricase specific ADA levels at day 21 in the Phase 1a clinical trial were not measured. […]

[7] = Phase 1a and Phase 1b clinical trials: safety and tolerability; format: in vivo, human; details: 85 subjects dosed in Phase 1a and Phase 1b
Experimental: as §1
(§2) The Phase 1b clinical trial enrolled 63 patients with serum uric acid levels greater than 6 mg/dl separated into 11 cohorts. A single intravenous infusion of SVP Rapamycin alone at the following ascending dose levels was administered to four cohorts in ascending order. […] The subjects were monitored during a 30 day period post infusion with visits occurring on day 7, 14,21 and the end of trial visit on day 30. Blood and serum of each patient was evaluated for serum uric acid, ADAs (specifically anti-PEG, anti-uricase and anti-pegsiticase) and safety parameters. […]

uric acid [8] = experiment: Uric acid levels in uricase deficient mice; format: in vivo
Experimental: (§3) A pharmacology study in mice that were genetically deficient in endogenous uricase was conducted. The study evaluated the efficacy of a dose regimen consisting of three immunizations with SEL 212 followed by doses of pegsiticase alone in preventing the formation of ADAs to pegsiticase. The treatment period consisted of the first 14 days of the study. In the study, mice were separated into three treatment groups. During the treatment period: • the first group, referred to as the Untreated Group, received no treatment; • the second group, referred to as the Pegsiticase Group, was treated with pegsiticase alone; and • the third group, referred to as the SVP Rapamycin+Pegsiticase Group, was treated with SVP Rapamycin co administered with pegsiticase.
(§4) The Pegsiticase Group and SVP Rapamycin+Pegsiticase Group were treated on days zero, seven and 14 of the treatment period. Each group was then treated with pegsiticase alone on days 35 and 42 of the study, or the challenge period. Uricase specific ADA levels were recorded to determine the formation of ADAs to pegsiticase. Uric acid levels were measured to determine effectiveness of SVP Rapamycin co administered with pegsiticase in lowering uric acid levels below 6 mg/dl, which is the treatment target for gout patients.

serum uric acid [9] = experiment: Phase 1a clinical trial: serum uric acid; format: in vivo, human
Experimental: as §1
FIG. 4 depicts average serum uric acid levels of the Phase 1a clinical trial's five cohorts tested at different measurement intervals (Day 7, 14, 21 and 30) during the course of the 30 day period following the single intravenous infusion of pegsiticase at the outset of the trial.
The serum uric acid levels were measured at baseline and days seven, 14, 21 and 30 and uricase specific ADA levels at baseline and days seven, 14 and 30 following a single intravenous injection of pegsiticase. Uricase specific ADA levels at day 21 in the Phase 1a clinical trial were not measured. Based on the results from the Phase 1a clinical trial, it was observed that pegsiticase at a tolerated dose is capable of achieving and maintaining a reduction of serum uric acid below the target of 6 mg/dl for a 30 day period in the absence of inhibitory uricase specific ADAs.

serum uric acid [10] = experiment: Phase 1b clinical trial: serum uric acid; format: in vivo, human
Experimental: as §2, with “order. Each cohort consisted of seven patients and were designated as follows: Cohort #1 (0.03 mg/kg), Cohort #3 (0.1 mg/kg), Cohort #5 (0.3 mg/kg) and Cohort #7 (0.5 mg/kg) collectively the SVP Rapamycin Cohorts. After a cohort of the SVP-Rapamycin alone had successfully and safely been dosed the corresponding dose level of SVP Rapamycin was combined with a fixed dose of pegsiticase (0.4 mg/kg). The combination was co-administered sequentially as a single intravenous infusion, with the SVP Rapamycin infusion preceding the pegsiticase infusion.” for “order.”

[11] = Gout flare in first month, pegsiticase alone (Phase 1, Table 1); format: in vivo, human
Experimental: as §1
When pegsiticase was administered alone in the Phase 1 described in Example 2, 57% (4 out of 7 patients) of those with a history of gout had signs of gout flare in the first month after receiving the study drug (Table 1). […] This subject was in the cohort that received only the rapamycin-comprising nanocarrier (without uricase). […] The flare was, therefore, unrelated to a change in serum uric acid. […] This patient's serum uric acid level dropped from 8.8 mg/dL to 0.1 mg/dL within 90 minutes following drug administration. So, although this subject had only been diagnosed with asymptomatic hyperuricemia before the study, a flare did seem to coincide with a drop in serum uric acid.

uricase specific ADAs [12] = experiment: Uricase specific ADA formation in uricase deficient mice; format: in vivo; details: treated days 0, 7 and 14, pegsiticase alone challenge days 35 and 42
Experimental: as §3, §4

uricase specific ADAs [13] = experiment: Phase 1b clinical trial: uricase specific ADAs; format: in vivo, human; details: pegsiticase alone 0.4 mg/kg, Cohort #3 Phase 1a and Cohort #9 Phase 1b; resulting in return to baseline serum uric acid
Experimental: as §2, with “order. Each cohort consisted of seven patients and were designated as follows: Cohort #1 (0.03 mg/kg), Cohort #3 (0.1 mg/kg), Cohort #5 (0.3 mg/kg) and Cohort #7 (0.5 mg/kg) collectively the SVP Rapamycin Cohorts. After a cohort of the SVP-Rapamycin alone had successfully and safely been dosed the corresponding dose level of SVP Rapamycin was combined with a fixed dose of pegsiticase (0.4 mg/kg). The combination was co-administered sequentially as a single intravenous infusion, with the SVP Rapamycin infusion preceding the pegsiticase infusion.” for “order.”
In the Phase 1a clinical trial, uricase specific ADA levels at day 21 was not measured. […] As a result, for the Phase 1b clinical trial, uricase specific ADA levels at day 21 were monitored.

Compound: Cc1nc(-c2ccc(OCC(C)C)c(C#N)c2)sc1C(=O)O [Febuxostat, febuxostat]
- Flares per patient month ([1]; 80 mg/day): 0.77 flares per patient month
- subjects requiring treatment for at least one gout flare ([1]; 80 mg/day): 55 out of 255
- Flares per patient month ([1]; 80 mg/day, listed as febuxostat): at least 0.22 flares per patient month
- Flares per patient month ([1]; 120 mg/day): 0.36 flares per patient month
- subjects requiring treatment for at least one gout flare ([1]; 120 mg/day): 90 out of 250
- Flares per patient month ([1]; 120 mg/day, listed as febuxostat): ≥ 0.36 flares per patient month

Compound: O=C(O)CSc1nnc(Br)n1-c1ccc(C2CC2)c2ccccc12 [Lesinurad, lesinurad]
- Time of efficacy (area under curve of mean sUA levels over time) (serum uric acid (SUA); Lesinurad 200 mg/day): 158.5
- Time of efficacy (area under curve of mean sUA levels over time) (serum uric acid (SUA); Lesinurad 400 mg/day): 165.8
- Time of efficacy (area under curve of mean sUA levels over time) (serum uric acid (SUA); Lesinurad 600 mg/day): 167.5
- patients with gout flares requiring treatment in a month ([2]; 200 mg daily): 10 out of 46
- Flares per patient month ([2]; 200 mg/day): 0.22 flares per patient month
- patients with gout flares requiring treatment in a month ([2]; 400 mg daily): 13 out of 42
- Flares per patient month ([2]; 400 mg/day): 0.31 flares per patient month
- patients with gout flares requiring treatment in a month ([2]; 600 mg daily): 15 out of 48
- Flares per patient month ([2]; 600 mg/day): 0.31 flares per patient month

Compound: Pegloticase
- Time of efficacy (area under curve of mean sUA levels over time) (serum uric acid (SUA); Pegloticase biweekly, Nonresponders): Nonresponders-84.35
- Time of efficacy (area under curve of mean sUA levels over time) (serum uric acid (SUA); Pegloticase biweekly, Responders): Responders-26.6
- Time of efficacy (area under curve of mean sUA levels over time) (serum uric acid (SUA); Pegloticase monthly, Nonresponders): Nonresponders-99.75
- Time of efficacy (area under curve of mean sUA levels over time) (serum uric acid (SUA); Pegloticase monthly, Responders): Responders-53.55
- non-responders, share of subjects (uric acid [3]; monthly dosing cohorts): 65%
- subjects classified as responders (uric acid below 6 mg/dl for 80% of the time at months three and six) (uric acid [3]; monthly dosing cohorts): 35%
- mean uric acid levels at four weeks (uric acid [3]; non-responders): above 6 mg/dl
- mean uric acid levels at four weeks (uric acid [3]; responders): above 4 mg/dl
- treated subjects that developed ADAs (ADAs): 89%
- flares per patient over the first 3 months ([4]; biweekly pegloticase, 85 patients): 2.3
- flares per patient over the first 3 months ([4]; monthly pegloticase, 84 patients): 2.7
- Flares per patient month ([4]; pegloticase biweekly): 0.77 flares per patient month
- Flares per patient month ([4]; pegloticase monthly): 0.90 flares per patient month
- Flares per patient month ([4]; pegloticase monthly, listed as pegloticase): 0.9 flares per patient month
- study subjects reporting one or more flares ([4]; phase 2 trial, three-month study): 88%
- patients with gout flares in the first 3 months ([4]; two phase 3 trials, despite gout flare prophylaxis (colchicine or NSAIDs)): about 80%

Compound: Recombinant Pegylated Candida Urate Oxidase [pegsiticase]
- serious adverse events [5]: no serious adverse events
- tolerability [5]: well tolerated
- uricase specific ADAs (uricase specific ADAs [6]): induced uricase specific ADAs in all subjects
- tolerability [7]: well tolerated
- uric acid levels (uric acid [8]; after the first dose in the treatment period): below 6 mg/dl
- uric acid levels (uric acid [8]; subsequent doses in the treatment period and challenge period): > 6 mg/dL
- time average serum uric acid levels sustained below 6 mg/dl (serum uric acid [9]; each cohort, depending on the dose level): 14 to 30 days
- time within which serum uric acid levels dropped significantly (serum uric acid [9]; single intravenous infusion, all 22 subjects): approximately 10 hours
- time after dosing by which serum uric acid levels rebounded (serum uric acid [9]; single intravenous infusion, majority of patients): 14 to 21 days
- subjects returned to baseline serum uric acid levels by day 30 (serum uric acid [10]; Cohort #9: pegsiticase alone 0.4 mg/kg): four of the five
- serum uric acid levels (serum uric acid [10]; pegsiticase alone 0.4 mg/kg, Cohort #3 Phase 1a and Cohort #9 Phase 1b, initial control, enzyme activity lost past day 14): below 6 mg/dL
- Flare in 1st month ([11]; individual subject with history of gout, SEL-037 0.8 mg/kg): no
- Flare in 1st month ([11]; individual subjects with history of gout, SEL-037 0.1 mg/kg, 0.1 mg/kg): no and yes (2×) and yes (positive for
- Flare in 1st month ([11]; individual subjects with history of gout, SEL-037 0.2 mg/kg, 0.2 mg/kg): no and yes (mild gout, right
- subjects with a history of gout with signs of gout flare in the first month ([11]; pegsiticase alone, Phase 1, 4 out of 7 patients): 57%
- uricase specific ADA formation (uricase specific ADAs [12]): developed uricase specific ADAs
- uricase specific ADA formation (uricase specific ADAs [13]): uricase specific ADA formation at day 14
